According to patent US6747021B2, “Cryptophycin compound” (Eli Lilly and Company, priority 2000, dated 2004):

Legend:
[1] = system: COLON ADENOCARCINOMA-26/A; type: in vivo, murine; settings: IV 10 mg/kg/inj QD 1-7, 9; total dose 80 mg/kg; Balb/C female mice
Description: (§1) Inhibition of tumors transplanted into mice is an accepted procedure for studying the efficacy of antitumor agents (Corbett, et al., In vivo Methods for Screening and Preclinical Testing; Use of rodent solid tumors for drug discovery., In: Anticancer Drug Development Guide: Preclinical Screening, Clinical Trials, and Approval, B. Teicher (ed), Humana Press Inc., Totowa, N.J., Chapter 5, pages 75-99 (1997); (Corbett, et al., Int. J. Pharmacog., 33, Supplement, 102-122 (1995)). Murine tumors or human xenographs were implanted essentially as described by Corbett in In vivo Methods for Screening and Preclinical Testing; Use of rodent solid tumors for drug discovery. Briefly, the murine tumor or human xenograph was implanted subcutaneously using either 12-gauge trocar implants or counted number of cells. The location for the trocar insertion is midway between the axillary and inguinal region along the side of the mouse. The trocar is slipped approximately ¾ of an inch subcutaneously up toward the axilla before discharging the tumor fragment, and pinching the skin as the trocar is removed. Alternatively, human tumor cells prepared from a […] of donor tumors (5×10^6 cells) were implanted subcutaneously in a hind-leg of a male or female nude mouse (Charles River). Either a test compound in vehicle or vehicle alone was administered by intravenous bolus injection (iv), intraperitoneal injection (ip), or oral gavage (po). Each treatment group, as well as a group of untreated control animals, consisted of five animals per group in each experiment. Subcutaneous tumor response was monitored by tumor volume measurement performed twice each week over the course of the experiment (60-120 days). Body weights were taken as a general measure of toxicity. The subcutaneous tumor data were analyzed by determining the median tumor weight for each treatment group over the course of the experiment and calculating the tumor growth delay as the difference in days for the treatment versus the control tumors to reach a volume of either 500 or 1000 mm^3.
(§2) Cryptophycin-309 (309) was tested against a variety of murine and human tumors substantially as described supra. Cryptophycin-55 glycinate (55-GLY), Taxol, and Adriamycin (Adria) were also included in certain tests for purposes of comparison. Cryptophycin 55 glycinate is known in the art (WO 98/08505, Example 9) and has the following structure: [drawing 9]
(§3) Tumor Weight(mg)=(a×b^2)/2 where a=tumor length (mm) and b=tumor width (mm).
(§4) Tumor Growth Delay=T−C where T is the median time (days) required for the treatment group tumors to reach a predetermined size, and C is the median time (days) for the control group tumors to reach the same size. Tumor-free survivors are excluded from this calculation, and are tabulated separately (Tumor Free).
(§5) Log Kill=Tumor Growth Delay/(3.32)(Td)
(§6) where Tumor Growth Delay is as previously defined and Td is tumor volume doubling time (days), estimated from the best fit straight line from a log-linear growth plot of the control group of tumors in exponential growth (100-800 mg range)
(§7) %T/C mass—The treatment and control groups are measured when the control group tumors reach approximately 700 to 1200 mg in size (median group). The median tumor weight of each group is determined (including zeros). The T/C value in percent is an indication of antitumor effectiveness. A T/C≦42% is considered significant antitumor activity. A T/C<10% is considered to indicate highly significant antitumor activity.
(§8) Body Weight Loss Nadir—A body weight loss nadir (mean of group) of greater than 20% or drug deaths greater than 20% are considered to indicate an excessively toxic dosage in single course trials.
(§9) Activity Rating—the Activity Rating is derived from the Log Kill according to the following table: […]

[2] = system: MAMMARY ADENOCARCINOMA 16/C; type: in vivo, murine; settings: IV 8 mg/kg/inj QD 3-11; total dose 72 mg/kg; C3H/HeN female mice
Description: as §1, §2, §3, §4, §5, §6, §7, §8, §9

[3] = system: PANCREATIC DUCTAL ADENOCARCINOMA #02; type: in vivo, murine; settings: IV 8 mg/kg/inj QD 1-8; total dose 64 mg/kg; BDF1 female mice; experiment #
Description: as §1, §2, §3, §4, §5, §6, §7, §8, §9

[4] = system: MAMMARY ADENOCARCINOMA-16/C/Adr; test: Early stage murine mammary adenocarcinoma-16/C/Adr subcutaneous tumor assay; type: in vivo; settings: IV 10 mg/kg/inj QD 1-7; total dose 70 mg/kg; C3H female mice
Description: as §1, §2, §3, §4, §5, §6, §7, §8, §9

[5] = system: COLON ADENOCARCINOMA 51/A; test: Early stage murine colon adenocarcinoma 51/A subcutaneous tumor assay; type: in vivo; settings: IV 10 mg/kg/inj QD 1-8; total dose 80 mg/kg; CDF female mice
Description: as §1, §2, §3, §4, §5, §6, §7, §8, §9

[6] = system: HUMAN COLON ADENOCARCINOMA 15; type: in vivo; settings: IV 9.5 mg/kg/inj QD 3-11; total dose 85.5 mg/kg; Balb/C SCID female mice
Description: as §1, §2, §3, §4, §5, §6, §7, §8, §9

[7] = system: HUMAN COLON ADEN[…]-116; test: Early stage human colon adenocarcinoma HCT-116 xenograft assay; type: in vivo; settings: IV 9 mg/kg/inj QD 3-10; total dose 72 mg/kg; Balb/C SCID female mice
Description: as §1, §2, §3, §4, §5, §6, §7, §8, §9

CC(=O)O[C@H]1C(=O)[C@@]2(C)[C@H]([C@H](OC(=O)c3ccccc3)[C@]3(O)C[C@H](OC(=O)[C@H](O)[C@@H](NC(=O)c4ccccc4)c4ccccc4)C(C)=C1C3(C)C)[C@]1(OC(C)=O)CO[C@@H]1C[C@@H]2O [Taxol]
% T/C MASS [1]: 57%
DRUG DEATHS [1]: 0/5
LOG KILL [1]: None
MEDIAN TUMOR WEIGHT [1]: 516 mg
% T/C MASS [2]: 0%
ACTIVITY RATING [2]: ++++ (>2.8)
DRUG DEATHS [2]: 0/5
GROWTH DELAY [2]: 12.5 days
LOG KILL [2]: 2.9
MEDIAN TUMOR WEIGHT [2]: 0 mg
% T/C MASS [3]: 79%
DRUG DEATHS [3]: 0/5
GROWTH DELAY [3]: 1 days
LOG KILL [3]: 0.1
MEDIAN TUMOR WEIGHT [3]: 1296 mg
DRUG DEATHS [4]: 0/5
LOG KILL [4]: None
MEDIAN TUMOR WEIGHT [4]: 1198 mg
% T/C MASS [5]: 25%
ACTIVITY RATING [5]: + (0.7-1.2)
DRUG DEATHS [5]: 0/6
GROWTH DELAY [5]: 5.6 days
LOG KILL [5]: 0.7
MEDIAN TUMOR WEIGHT [5]: 288 mg
% T/C MASS [6]: 67%
DRUG DEATHS [6]: 0/5
GROWTH DELAY [6]: 3.5 days
LOG KILL [6]: 0.4
MEDIAN TUMOR WEIGHT [6]: 1044 mg
% T/C MASS [7]: 11%
ACTIVITY RATING [7]: +++ (2.0-2.8)
DRUG DEATHS [7]: 0/5
GROWTH DELAY [7]: 17 days
LOG KILL [7]: 2.0
MEDIAN TUMOR WEIGHT [7]: 126 mg
